Results published in patent US20260184700A1, “PDK1 REGULATORY COMPOUND AND COMPOSITION CONTAINING THE SAME” (PROVIBIO CO., LTD., priority 2024, published 2026).

Each molecule was assayed on T cells isolated from mouse spleen (assay: T cell proliferation inhibition, CFSE flow cytometry, CD3/CD28 activation). Conditions: compound 100 nM, CD3/CD28 activated, 3 days.
Format: cell-based
Method: To verify the T cell proliferation inhibitory effect of the compounds according to the present invention, the following experiment was performed based on flow cytometry analysis using carboxyfluorescein diacetate succinimidyl ester (CFSE), a fluorescent dye that binds to intracellular molecules via covalent bonds.
Spleens were extracted from 7-week-old C57BL/6 mice, ground, and then separated into single cells using a strainer (40 μm pore size, SPL). Red blood cells were removed using ACK (Ammonium-Chloride-Potassium) lysis buffer to isolate white blood cells.
Finally, using a MACS Magnetic Stand and LS column, T cells were isolated from the spleen.
The T cells isolated from the spleen were resuspended in 1 mL of free medium (RPMI-1640+200 U/mL penicillin+200 μg/mL streptomycin), and 0.3 μL of CFSE (10 mM) was added. The mixture was incubated at 37° C. for 5 minutes.
Free medium (10 mL) was added to stop the reaction, and the cells were centrifuged to obtain the cell pellet.
RPMI 1640 medium containing 10% FBS, 100 U/mL penicillin, 100 μg/mL streptomycin, and resuspended the cells. The cells were then seeded into a 96-well plate at a density of 2×10^5 cells per well and activated with CD3 and CD28 antibodies (0.5 μg/mL each) to activate T cells.
The compound diluted in DMSO was added at concentrations of 10 nM, 100 nM, 1 μM, 10 μM, 30 μM, and 50 μM, with three wells per concentration, and cultured at 37° C. and 5% CO2 for three days. The cells were then analyzed using a FACS Canto instrument.
The proliferation inhibition rate (%) was calculated using the following formula: […]
`Nc1ncccc1C(=O)NCCCCCCCCCCCCN1CCC(O)CC1` [Compound 48, 2-Amino-N-(12-(4-hydroxypiperidin-1-yl)dodecyl) nicotinamide] was tested, and the “Proliferation inhibition rate (%)” value was 100.00%.
`CC1CCCN(CCCCCCCCCCCCNC(=O)c2cccnc2N)CC1` (centres unmarked) [Compound 39, 2-Amino-N-(12-(4-methylazepan-1-yl)dodecyl) nicotinamide] was tested, and the “Proliferation inhibition rate (%)” value was 100.00%.
`COC1CCN(CCCCCCCCCCCCNC(=O)c2cccnc2N)CC1` [Compound 94, 2-amino-N-(12-(4-methoxypiperidin-1-yl)dodecyl) nicotinamide] was tested, and the “Proliferation inhibition rate (%)” value was 100.00%.
With `CC1CN(CCCCCCCCCCCCNC(=O)c2cccnc2N)C(C)CN1.Cl` (centres unmarked) [Compound 36, 2-Amino-N-(12-(2,5-dimethylpiperazin-1-yl)dodecyl) nicotinamide hydrochloride] the “Proliferation inhibition rate (%)” value was 100.00%.
With `Nc1ncccc1C(=O)NCCCCCCCCCCCCN1CCN(CCO)CC1` [Compound 54, 2-Amino-N-(12-(4-(2-hydroxyethyl)piperazin-1-yl)dodecyl) nicotinamide] the “Proliferation inhibition rate (%)” value was 100.00%.
`Nc1ncccc1C(=O)NCCCCCCCCCCCCNC1CCOC1` (centres unmarked) [Compound 128, 2-amino-N-(12-((tetrahydrofuran-3-yl)amino)dodecyl) nicotinamide] was tested, and the “Proliferation inhibition rate (%)” value was 100.00%.
With `CN(CCCCCCCCCCCCNC(=O)c1cccnc1N)C1CCCCC1` [Compound 34, 2-Amino-N-(12-(cyclohexyl(methyl)amino)dodecyl) nicotinamide] the “Proliferation inhibition rate (%)” value was 100.00%.
`CC1CN(C)C(CCCCCCCCCCCCNc2ccc3cncnc3n2)N1` (centres unmarked) [Compound 43] was tested, and the “Proliferation inhibition rate (%)” value was 100.00%.

Same assay, conditions: compound 1 μM, CD3/CD28 activated, 3 days
With `Nc1ncccc1C(=O)NCCCCCCCCCCCCN1CCC(O)CC1` [Compound 48, 2-Amino-N-(12-(4-hydroxypiperidin-1-yl)dodecyl) nicotinamide] the “Proliferation inhibition rate (%)” value was 100.00%.
For `CC1CCCN(CCCCCCCCCCCCNC(=O)c2cccnc2N)CC1` (centres unmarked) [Compound 39, 2-Amino-N-(12-(4-methylazepan-1-yl)dodecyl) nicotinamide], the “Proliferation inhibition rate (%)” value was 100.00%.
In the case of `COC1CCN(CCCCCCCCCCCCNC(=O)c2cccnc2N)CC1` [Compound 94, 2-amino-N-(12-(4-methoxypiperidin-1-yl)dodecyl) nicotinamide], the “Proliferation inhibition rate (%)” value is reported as 100.00%.
With `Nc1ncccc1C(=O)NCCCCCCCCCCCCN1CCN(C=O)CC1` [Compound 97, 2-amino-N-(12-(4-formylpiperazin-1-yl)dodecyl) nicotinamide] the “Proliferation inhibition rate (%)” value was 100.00%.
In the case of `CC1CN(CCCCCCCCCCCCNC(=O)c2cccnc2N)C(C)CN1.Cl` (centres unmarked) [Compound 36, 2-Amino-N-(12-(2,5-dimethylpiperazin-1-yl)dodecyl) nicotinamide hydrochloride], the “Proliferation inhibition rate (%)” value is reported as 100.00%.
In the case of `Nc1ncccc1C(=O)NCCCCCCCCCCCCN1CCN(CCO)CC1` [Compound 54, 2-Amino-N-(12-(4-(2-hydroxyethyl)piperazin-1-yl)dodecyl) nicotinamide], the “Proliferation inhibition rate (%)” value is reported as 100.00%.
For `Nc1ncccc1C(=O)NCCCCCCCCCCCCNC1CCOC1` (centres unmarked) [Compound 128, 2-amino-N-(12-((tetrahydrofuran-3-yl)amino)dodecyl) nicotinamide], the “Proliferation inhibition rate (%)” value was 100.00%.
For `CN(CCCCCCCCCCCCNC(=O)c1cccnc1N)C1CCCCC1` [Compound 34, 2-Amino-N-(12-(cyclohexyl(methyl)amino)dodecyl) nicotinamide], the “Proliferation inhibition rate (%)” value was 100.00%.
For `CC1CN(C)C(CCCCCCCCCCCCNc2ccc3cncnc3n2)N1` (centres unmarked) [Compound 43], the “Proliferation inhibition rate (%)” value was 100.00%.

Same assay, conditions: compound 10 μM, CD3/CD28 activated, 3 days
In the case of `Nc1ncccc1C(=O)NCCCCCCCCCCCCN1CCC(O)CC1` [Compound 48, 2-Amino-N-(12-(4-hydroxypiperidin-1-yl)dodecyl) nicotinamide], the “Proliferation inhibition rate (%)” value is reported as 100.00%.
`CC1CCCN(CCCCCCCCCCCCNC(=O)c2cccnc2N)CC1` (centres unmarked) [Compound 39, 2-Amino-N-(12-(4-methylazepan-1-yl)dodecyl) nicotinamide] was tested, and the “Proliferation inhibition rate (%)” value was 100.00%.
`COC1CCN(CCCCCCCCCCCCNC(=O)c2cccnc2N)CC1` [Compound 94, 2-amino-N-(12-(4-methoxypiperidin-1-yl)dodecyl) nicotinamide] was tested, and the “Proliferation inhibition rate (%)” value was 100.00%.
With `Nc1ncccc1C(=O)NCCCCCCCCCCCCN1CCN(C=O)CC1` [Compound 97, 2-amino-N-(12-(4-formylpiperazin-1-yl)dodecyl) nicotinamide] the “Proliferation inhibition rate (%)” value was 100.00%.
For `CC1CN(CCCCCCCCCCCCNC(=O)c2cccnc2N)C(C)CN1.Cl` (centres unmarked) [Compound 36, 2-Amino-N-(12-(2,5-dimethylpiperazin-1-yl)dodecyl) nicotinamide hydrochloride], the “Proliferation inhibition rate (%)” value was 100.00%.
For `Nc1ncccc1C(=O)NCCCCCCCCCCCCN1CCN(CCO)CC1` [Compound 54, 2-Amino-N-(12-(4-(2-hydroxyethyl)piperazin-1-yl)dodecyl) nicotinamide], the “Proliferation inhibition rate (%)” value was 100.00%.
With `Cl.O=C(NCCCCCCCCCCCCN1CCNCC1)c1ccc(-c2ccccc2)o1` [Compound 90, 5-Phenyl-N-(12-(piperazin-1-yl)dodecyl) furan-2-carboxamide Hydrochloride] the “Proliferation inhibition rate (%)” value was 100.00%.
In the case of `Nc1ncccc1C(=O)NCCCCCCCCCCCCNC1CCOC1` (centres unmarked) [Compound 128, 2-amino-N-(12-((tetrahydrofuran-3-yl)amino)dodecyl) nicotinamide], the “Proliferation inhibition rate (%)” value is reported as 100.00%.
With `CN(CCCCCCCCCCCCNC(=O)c1cccnc1N)C1CCCCC1` [Compound 34, 2-Amino-N-(12-(cyclohexyl(methyl)amino)dodecyl) nicotinamide] the “Proliferation inhibition rate (%)” value was 100.00%.
In the case of `CC1CN(C)C(CCCCCCCCCCCCNc2ccc3cncnc3n2)N1` (centres unmarked) [Compound 43], the “Proliferation inhibition rate (%)” value is reported as 100.00%.

Same assay, conditions: compound 30 μM, CD3/CD28 activated, 3 days
In the case of `Nc1ncccc1C(=O)NCCCCCCCCCCCCN1CCC(O)CC1` [Compound 48, 2-Amino-N-(12-(4-hydroxypiperidin-1-yl)dodecyl) nicotinamide], the “Proliferation inhibition rate (%)” value is reported as 100.00%.
`CC1CCCN(CCCCCCCCCCCCNC(=O)c2cccnc2N)CC1` (centres unmarked) [Compound 39, 2-Amino-N-(12-(4-methylazepan-1-yl)dodecyl) nicotinamide] was tested, and the “Proliferation inhibition rate (%)” value was 100.00%.
With `COC1CCN(CCCCCCCCCCCCNC(=O)c2cccnc2N)CC1` [Compound 94, 2-amino-N-(12-(4-methoxypiperidin-1-yl)dodecyl) nicotinamide] the “Proliferation inhibition rate (%)” value was 100.00%.
In the case of `Nc1ncccc1C(=O)NCCCCCCCCCCCCN1CCN(C=O)CC1` [Compound 97, 2-amino-N-(12-(4-formylpiperazin-1-yl)dodecyl) nicotinamide], the “Proliferation inhibition rate (%)” value is reported as 100.00%.
In the case of `CC1CN(CCCCCCCCCCCCNC(=O)c2cccnc2N)C(C)CN1.Cl` (centres unmarked) [Compound 36, 2-Amino-N-(12-(2,5-dimethylpiperazin-1-yl)dodecyl) nicotinamide hydrochloride], the “Proliferation inhibition rate (%)” value is reported as 100.00%.
`Nc1ncccc1C(=O)NCCCCCCCCCCCCN1CCN(CCO)CC1` [Compound 54, 2-Amino-N-(12-(4-(2-hydroxyethyl)piperazin-1-yl)dodecyl) nicotinamide] was tested, and the “Proliferation inhibition rate (%)” value was 100.00%.
With `Cl.O=C(NCCCCCCCCCCCCN1CCNCC1)c1ccc(-c2ccccc2)o1` [Compound 90, 5-Phenyl-N-(12-(piperazin-1-yl)dodecyl) furan-2-carboxamide Hydrochloride] the “Proliferation inhibition rate (%)” value was 100.00%.
`Nc1ncccc1C(=O)NCCCCCCCCCCCCNC1CCOC1` (centres unmarked) [Compound 128, 2-amino-N-(12-((tetrahydrofuran-3-yl)amino)dodecyl) nicotinamide] was tested, and the “Proliferation inhibition rate (%)” value was 100.00%.
`CN(CCCCCCCCCCCCNC(=O)c1cccnc1N)C1CCCCC1` [Compound 34, 2-Amino-N-(12-(cyclohexyl(methyl)amino)dodecyl) nicotinamide] was tested, and the “Proliferation inhibition rate (%)” value was 100.00%.
For `CC1CN(C)C(CCCCCCCCCCCCNc2ccc3cncnc3n2)N1` (centres unmarked) [Compound 43], the “Proliferation inhibition rate (%)” value was 100.00%.

Same assay, conditions: compound 50 μM, CD3/CD28 activated, 3 days
In the case of `Nc1ncccc1C(=O)NCCCCCCCCCCCCN1CCC(O)CC1` [Compound 48, 2-Amino-N-(12-(4-hydroxypiperidin-1-yl)dodecyl) nicotinamide], the “Proliferation inhibition rate (%)” value is reported as 100.00%.
`CC1CCCN(CCCCCCCCCCCCNC(=O)c2cccnc2N)CC1` (centres unmarked) [Compound 39, 2-Amino-N-(12-(4-methylazepan-1-yl)dodecyl) nicotinamide] was tested, and the “Proliferation inhibition rate (%)” value was 100.00%.
`COC1CCN(CCCCCCCCCCCCNC(=O)c2cccnc2N)CC1` [Compound 94, 2-amino-N-(12-(4-methoxypiperidin-1-yl)dodecyl) nicotinamide] was tested, and the “Proliferation inhibition rate (%)” value was 100.00%.
For `Nc1ncccc1C(=O)NCCCCCCCCCCCCN1CCN(C=O)CC1` [Compound 97, 2-amino-N-(12-(4-formylpiperazin-1-yl)dodecyl) nicotinamide], the “Proliferation inhibition rate (%)” value was 100.00%.
With `CC1CN(CCCCCCCCCCCCNC(=O)c2cccnc2N)C(C)CN1.Cl` (centres unmarked) [Compound 36, 2-Amino-N-(12-(2,5-dimethylpiperazin-1-yl)dodecyl) nicotinamide hydrochloride] the “Proliferation inhibition rate (%)” value was 100.00%.
With `Nc1ncccc1C(=O)NCCCCCCCCCCCCN1CCN(CCO)CC1` [Compound 54, 2-Amino-N-(12-(4-(2-hydroxyethyl)piperazin-1-yl)dodecyl) nicotinamide] the “Proliferation inhibition rate (%)” value was 100.00%.
`Cl.O=C(NCCCCCCCCCCCCN1CCNCC1)c1ccc(-c2ccccc2)o1` [Compound 90, 5-Phenyl-N-(12-(piperazin-1-yl)dodecyl) furan-2-carboxamide Hydrochloride] was tested, and the “Proliferation inhibition rate (%)” value was 100.00%.
In the case of `Nc1ncccc1C(=O)NCCCCCCCCCCCCNC1CCOC1` (centres unmarked) [Compound 128, 2-amino-N-(12-((tetrahydrofuran-3-yl)amino)dodecyl) nicotinamide], the “Proliferation inhibition rate (%)” value is reported as 100.00%.
For `CN(CCCCCCCCCCCCNC(=O)c1cccnc1N)C1CCCCC1` [Compound 34, 2-Amino-N-(12-(cyclohexyl(methyl)amino)dodecyl) nicotinamide], the “Proliferation inhibition rate (%)” value was 100.00%.
For `CC1CN(C)C(CCCCCCCCCCCCNc2ccc3cncnc3n2)N1` (centres unmarked) [Compound 43], the “Proliferation inhibition rate (%)” value was 100.00%.
